Assay results as given in US10165776B2, “Substituted pyrazolylpyrazole derivative and use of same as herbicide” (KYOYU AGRI CO., LTD., priority 2015, dated 2019).

Experiments:
Assay type in all cases: in vivo
[1] = system: Oryza sativa; test: Paddy herbicidal activity test, phytotoxicity to transplanted rice; settings: rice transplanted at 2.0 leaf stage, 30 days at 30° C.
Protocol: (§1) Rice paddy soil was filled into a 1/10000 are pot followed by the addition of suitable amounts of water and chemical fertilizer, kneading, seeding with Echinochloa crus-galli, Monochoria vaginalis and Scirpus juncoides and maintaining in an irrigated state at a water depth of 3 cm. Wettable powders of Target Compound (I) shown in Table 1 prepared in compliance with the preparation examples were diluted with a suitable amount of water, rice plants in the 2.0 leaf stage were transplanted during 3.5 leaf stage of Echinochloa crus-galli, and treated by dropping in chemical in the prescribed amount per 10 are using a pipette. After treating for 30 days in a glass greenhouse at an average atmospheric temperature of 30° C., the herbicidal efficacy thereof was investigated. Evaluation of herbicidal efficacy was carried out by comparing growth inhibition rate (%) with an untreated group, while evaluation of phytotoxicity was carried out by comparing growth inhibition rate (%) with the state of a complete eradication group, and were evaluated at 11 levels indicated below.

[2] = system: Chenopodium album; test: Farming soil treatment test; settings: soil surface spray prior to weed growth, 30 days at 30° C.
Protocol: (§2) Field soil was filled into a 1/6000 are pot followed by seeding with Digitaria ciliaris, Chenopodium album and Amaranthus retroflexus and covering with soil. Wettable powders of compounds of formula (I) shown in Table 1 prepared in compliance with the preparation examples were diluted with water to the prescribed amount of chemical and uniformly sprayed onto each soil surface layer using 100 liters of sprayed water per 10 are prior to weed growth following seeding. After treating for 30 days in a glass greenhouse at an average atmospheric temperature of 30° C., the herbicidal efficacy thereof was investigated. Evaluation of herbicidal efficacy was carried out in the same manner as the above-mentioned Test Example 1.

[3] = system: Amaranthus retroflexus; test: Farming soil treatment test; settings: soil surface spray prior to weed growth, 30 days at 30° C.
Protocol: as §2

[4] = system: Digitaria ciliaris; test: Farming soil treatment test; settings: soil surface spray prior to weed growth, 30 days at 30° C.
Protocol: as §2

[5] = system: Chenopodium album; test: Weed foliar treatment test (Test 3, 1.0 to 2.0 leaf stage); settings: foliar spray at 1.0 to 2.0 leaf stage of Digitaria ciliaris, 3 weeks at 25° C.
Protocol: (§3) Soil was filled into a 1/6000 are pot followed by seeding with Digitaria ciliaris, Chenopodium album and Amaranthus retroflexus, covering with soil, and cultivating in a glass greenhouse at an average atmospheric temperature of 25° C. Wettable powders of Target Compound (I) shown in Table 1 prepared in compliance with the preparation examples were diluted with water to the prescribed amount of chemical and uniformly sprayed onto the weeds using 150 liters of sprayed water per 10 are when Digitaria ciliaris had grown to the 1.0 to 2.0 leaf stage. After treating for 3 weeks in a glass greenhouse at an average atmospheric temperature of 25° C., the herbicidal efficacy thereof was investigated. Evaluation of herbicidal efficacy was carried out in the same manner as the above-mentioned Test Example 1.

[6] = system: Amaranthus retroflexus; test: as above; settings: foliar spray at 1.0 to 2.0 leaf stage of Digitaria ciliaris, 3 weeks at 25° C.
Protocol: as §3

[7] = system: Digitaria ciliaris; test: as above; settings: foliar spray at 1.0 to 2.0 leaf stage of Digitaria ciliaris, 3 weeks at 25° C.
Protocol: as §3

[8] = system: Digitaria ciliaris; test: Weed foliar treatment test (Test 4, 4.0 to 5.0 leaf stage); settings: 10 g a.i./10 a; foliar spray at 4.0 to 5.0 leaf stage of Digitaria ciliaris (plant height 10 cm to 15 cm); 20 days at 25° C.
Protocol: (§4) Field soil was filled into a 1/4500 are pot followed by seeding with Digitaria ciliaris and Galinsoga parviflora, covering with soil and cultivating in a glass greenhouse at an average atmospheric temperature of 25° C. Wettable powders of Target Compound (I) shown in Table 1 prepared in compliance with the preparation examples were diluted with water to the prescribed amount of chemical and uniformly sprayed onto the weeds using 100 liters of sprayed water per 10 are when Digitaria ciliaris had grown to the 4.0 to 5.0 leaf stage (plant height: 10 cm to 15 cm). After treating for 20 days in a glass greenhouse at an average atmospheric temperature of 25° C., the herbicidal efficacy thereof was investigated. Evaluation of herbicidal efficacy was carried out in the same manner as the above-mentioned Test Example 1.

[9] = system: Galinsoga parviflora; test: as above; settings: 10 g a.i./10 a; foliar spray at 4.0 to 5.0 leaf stage of Digitaria ciliaris (plant height 10 cm to 15 cm); 20 days at 25° C.
Protocol: as §4

[10] = system: Monochoria vaginalis; test: Paddy herbicidal activity test; settings: irrigated pot, treated at 3.5 leaf stage of Echinochloa crus-galli, 30 days at 30° C.
Protocol: as §1

[11] = system: Scirpus juncoides; test: Paddy herbicidal activity test; settings: irrigated pot, treated at 3.5 leaf stage of Echinochloa crus-galli, 30 days at 30° C.
Protocol: as §1

[12] = system: Echinochloa crus-galli; test: Paddy herbicidal activity test; settings: irrigated pot, treated at 3.5 leaf stage of Echinochloa crus-galli, 30 days at 30° C.
Protocol: as §1

SMILES | phytotoxicity, Oryza sativa ([1]; 1 g a.i./10 a) | phytotoxicity, Oryza sativa ([1]; 5 g a.i./10 a) | herbicidal efficacy, Chenopodium album ([2]; 5 g a.i./10 a) | herbicidal efficacy, Chenopodium album ([2]; 10 g a.i./10 a) | herbicidal efficacy, Amaranthus retroflexus ([3]; 5 g a.i./10 a) | herbicidal efficacy, Amaranthus retroflexus ([3]; 10 g a.i./10 a) | herbicidal efficacy, Digitaria ciliaris ([4]; 5 g a.i./10 a) | herbicidal efficacy, Digitaria ciliaris ([4]; 10 g a.i./10 a) | herbicidal efficacy, Chenopodium album ([5]; 5 g a.i./10 a) | herbicidal efficacy, Chenopodium album ([5]; 10 g a.i./10 a) | herbicidal efficacy, Amaranthus retroflexus ([6]; 5 g a.i./10 a) | herbicidal efficacy, Amaranthus retroflexus ([6]; 10 g a.i./10 a) | herbicidal efficacy, Digitaria ciliaris ([7]; 5 g a.i./10 a) | herbicidal efficacy, Digitaria ciliaris ([7]; 10 g a.i./10 a) | herbicidal efficacy, Digitaria ciliaris [8] | herbicidal efficacy, Galinsoga parviflora [9] | herbicidal efficacy, Monochoria vaginalis ([10]; 1 g a.i./10 a) | herbicidal efficacy, Monochoria vaginalis ([10]; 5 g a.i./10 a) | herbicidal efficacy, Scirpus juncoides ([11]; 1 g a.i./10 a) | herbicidal efficacy, Scirpus juncoides ([11]; 5 g a.i./10 a) | also measured
N#Cc1cnn(-c2nn3c(c2Cl)CCCC3)c1NC(=O)CCc1ccccc1 [Compound 19] | 0 (0 (exponent): 0% to less than 10% (growth inhibition rate)) | 1 (1: 10% to less than 20%) | 10 (10: 100%) | 10 (10: 100%) | 10 (10: 100%) | 10 (10: 100%) | 10 (10: 100%) | 10 (10: 100%) | 10 (10: 100%) | 10 (10: 100%) | 10 (10: 100%) | 10 (10: 100%) | 10 (10: 100%) | 10 (10: 100%) | 10 (10: 100%) | 10 (10: 100%) | 10 (10: 100%) | 10 (10: 100%) | 10 (10: 100%) | 10 (10: 100%) | herbicidal efficacy, Echinochloa crus-galli ([12]; 1 g a.i./10 a): 9 (9: 90% to less than 100%); herbicidal efficacy, Echinochloa crus-galli ([12]; 5 g a.i./10 a): 10 (10: 100%)
O=C(Nc1c([N+](=O)[O-])cnn1-c1nn2c(c1Cl)CCCC2)c1ccccc1 [Control agent 2.19, reference compound] | 1 (1: 10% to less than 20%) | 1 (1: 10% to less than 20%) | 3 (3: 30% to less than 40%) | 4 (4: 40% to less than 50%) | 1 (1: 10% to less than 20%) | 3 (3: 30% to less than 40%) | 0 (0 (exponent): 0% to less than 10% (growth inhibition rate)) | 2 (2: 20% to less than 30%) | 4 (4: 40% to less than 50%) | 5 (5: 50% to less than 60%) | 4 (4: 40% to less than 50%) | 4 (4: 40% to less than 50%) | 1 (1: 10% to less than 20%) | 2 (2: 20% to less than 30%) | 1 (1: 10% to less than 20%) | 3 (3: 30% to less than 40%) | 1 (1: 10% to less than 20%) | 1 (1: 10% to less than 20%) | 1 (1: 10% to less than 20%) | 2 (2: 20% to less than 30%) | herbicidal efficacy, Echinochloa crus-galli ([12]; 1 g a.i./10 a): 3 (3: 30% to less than 40%); herbicidal efficacy, Echinochloa crus-galli ([12]; 5 g a.i./10 a): 4 (4: 40% to less than 50%)
N#Cc1cnn(-c2nn3c(c2Cl)CCCC3)c1NC(=O)c1ccccc1 [Control agent 4.192, reference compound] | 1 (1: 10% to less than 20%) | 1 (1: 10% to less than 20%) | 2 (2: 20% to less than 30%) | 3 (3: 30% to less than 40%) | 0 (0 (exponent): 0% to less than 10% (growth inhibition rate)) | 1 (1: 10% to less than 20%) | 0 (0 (exponent): 0% to less than 10% (growth inhibition rate)) | 2 (2: 20% to less than 30%) | 4 (4: 40% to less than 50%) | 5 (5: 50% to less than 60%) | 3 (3: 30% to less than 40%) | 4 (4: 40% to less than 50%) | 1 (1: 10% to less than 20%) | 2 (2: 20% to less than 30%) | 0 (0 (exponent): 0% to less than 10% (growth inhibition rate)) | 2 (2: 20% to less than 30%) | 1 (1: 10% to less than 20%) | 2 (2: 20% to less than 30%) | 3 (3: 30% to less than 40%) | 4 (4: 40% to less than 50%) | herbicidal efficacy, Echinochloa crus-galli ([12]; 1 g a.i./10 a): 4 (4: 40% to less than 50%); herbicidal efficacy, Echinochloa crus-galli ([12]; 5 g a.i./10 a): 4 (4: 40% to less than 50%)
